How the values were obtained:
fibronectin = experiment: Expression of extracellular matrix component by RT-PCR in NIH3T3 cells; format: cell-based, mouse; details: 10 μM, 50 μM or 1000 μM peptide, 24 hours, FIG. 2, FIG. 3B
Procedure: (§1) In this example, the aim was to confirm the effect of the peptide according to an example on improving endogenous skin aging, including improvement of wrinkles and enhancement of elasticity, etc., by evaluating the expression levels of collagen type 1 (CoI1a1), fibronectin, elastin, and hyaluronic acid, which are known components of the dermis.
(§2) Specifically, NIH3T3 cells were seeded in a 6-well plate at a density of 3×10^5 cells/well and cultured for 24 hours. Next, the cells were washed once with serum-free DMEM media, and 10 μM, 50 μM or 1000 μM of a peptide consisting of an amino acid sequence of SEQ ID NO: 1 was dispensed into 1 mL of the serum-free media, and cultured in a CO2 incubator at 37° C. for 24 hours. Next, the culture was washed twice with PBS, and RNA was isolated from the culture using easy blue (iNtRON, Cat. No.: 17061, Korea). Next, using an RT kit (Enzynomics, Cat. NO.: RT200, Korea), the isolated RNA was reverse transcribed to synthesize the respective cDNA. Next, using the synthesized 1 μg cDNA, primers for CoI1a1, fibronectin, or elastin, and a PCR kit (Enzynomics, Cat. No.: P581T, Korea), polymerase chain reaction (PCR) was performed. Meanwhile, in this example, an untreated group was used as a control group, and a group to which IGF was added was used as a positive control group, the nucleotide sequences of the primers used in this example are shown in Table 2 below.

collagen type 1 (CoI1a1) = experiment: as above; format: cell-based, mouse; details: 10 μM, 50 μM or 1000 μM peptide, 24 hours, FIG. 2, FIG. 3A
Procedure: as §1, §2

elastin = experiment: as above; format: cell-based, mouse; details: 10 μM, 50 μM or 1000 μM peptide, 24 hours, FIG. 2, FIG. 3C
Procedure: as §1, §2

NIH3T3 cells = experiment: Proliferation of skin cells, MTT (change in cell survival rate); format: cell-based, mouse; details: 50 μM or 100 μM peptide, serum-free media, 72 hours, MTT absorbance 540 nm, FIG. 1
Procedure: In this example, the aim was to confirm the effect of a peptide according to an example on proliferation of skin cells, by evaluating changes in survival rate of NIH3T3 cells, which are mouse fibroblasts.
Specifically, NIH3T3 cells were seeded in a […] at a density of 1×10^4 cells/well and cultured for 24 hours. Next, the cells were washed once with serum-free DMEM media, and 50 μM or 100 μM of a peptide consisting of an amino acid sequence of SEQ ID NO: 1 was dispensed into 200 μL of the serum-free media, and cultured in a CO2 incubator at 37° C. for 72 hours. Next, the culture was washed twice with PBS, and MTT solution was dispensed into each well at a concentration of 0.5 mg/ml. Next, it was shaded from light and cultured in a CO2 incubator at 37° C. for 4 hours, and the absorbance at 540 nm was measured using a microplate reader (Molecular Devices, USA).

aquaporin-3 (AQP3) = experiment: Expression of skin barrier factor by RT-PCR in HaCaT cells; format: cell-based; details: 10 μM, 50 μM or 1000 μM peptide, 24 hours, FIG. 4, FIG. 5B
Procedure: (§3) In this example, the aim was to confirm the effect of the peptides according to an example on strengthening the skin barrier, by evaluating the expression levels of sirtuin-1 (SIRT-1) or aquaporin-3 (AQP3).
(§4) Specifically, HaCaT cells were seeded in a 6-well plate at a density of 3×10^5 cells/well and cultured for 24 hours. Next, the cells were washed once with serum-free DMEM media, and 10 μM, 50 μM or 1000 μM of the peptide consisting of the amino acid sequence of SEQ ID NO: 1 was dispensed into 1 mL of the serum-free media, and cultured in a CO2 incubator at 37° C. for 24 hours. Next, the culture was washed twice with PBS, and RNA was isolated from the culture using easy blue (iNtRON, Cat. No.: 17061, Korea). Next, using an RT kit (Enzynomics, Cat. NO.: RT200, Korea), the isolated RNA was reverse transcribed to synthesize the respective cDNA. Next, using the synthesized 1 μg cDNA, primers for SIRT-1 or AQP3, and a PCR kit (Enzynomics, Cat. No.: P581T, Korea), polymerase chain reaction (PCR) was performed. Meanwhile, in this example, an untreated group was used as a control group, and a group to which EGF was added was used as a positive control group, the nucleotide sequences of the primers used in this example are shown in Table 3 below.

sirtuin-1 (SIRT-1) = experiment: as above; format: cell-based; details: 10 μM, 50 μM or 1000 μM peptide, 24 hours, FIG. 4, FIG. 5A
Procedure: as §3, §4

HaCaT cells = experiment: Reactive oxygen species increased by ultraviolet irradiation, DCFH-DA flow cytometry; format: cell-based; details: 50 μM or 1000 μM peptide, 15 mJ/cm^2 ultraviolet rays, 24 hours, FACS, FIG. 6
Procedure: In this example, the aim was to confirm the effect of the peptide according to an embodiment on the antioxidant effect in damaged skin, by evaluating the change in the level of reactive oxygen species in skin cells increased by ultraviolet irradiation.
Specifically, HaCaT cells were seeded in a 6-well plate at a density of 5×10^5 cells/well and cultured for 24 hours. Next, the cells were washed once with serum-free DMEM media, and 50 μM or 1000 μM of a peptide consisting of an amino acid sequence of SEQ ID NO: 1 was dispensed into 1 mL of the serum-free media, and cultured in a CO2 incubator at 37° C. for […]. Next, the above culture was transferred to an e-tube, mixed with 1 ml of PBS, and dispensed into a well plate. Next, using a UV irradiator (VILBER LOURMAT, Cat No.: 3102-BSU, France), 15 mJ/cm^2 ultraviolet rays were irradiated to HaCaT cells. Next, the PBS in the well plate was removed, 900 μL of the culture medium in which the peptides were dispensed was added, and the plate was cultured in a CO2 incubator at 37° C. for 24 hours. Next, the culture was treated with DCFH-DA (2′,7′-dichlorofluorescin diacetate), wrapped in foil, and cultured in a CO2 incubator at 37° C. for 30 minutes. […] After washing the centrifuged cells with PBS, fluorescence values were measured through flow cytometry (FACS, BD, USA). […]

Question: Which results are given for TNRTEVEG [SEQ ID NO: 1]?
Answer: expression of fibronectin (fibronectin): increased; expression of CoI1a1 (collagen type 1 (CoI1a1)): increased; expression of elastin (elastin): increased; proliferation of fibroblasts (NIH3T3 cells): promoted; expression of AQP3 (aquaporin-3 (AQP3)): increased; expression of SIRT-1 (sirtuin-1 (SIRT-1)): increased; level of reactive oxygen species in keratinocytes increased by ultraviolet irradiation (HaCaT cells): reduced

Reference: patent publication US20260200977A1, “PEPTIDE HAVING ACTIVITY OF IMPROVING STATE OF SKIN, AND USE THEREOF” (CAREGEN CO., LTD., priority 2022, published 2026)
